Consider 4 molecules from paper PMC11302688, “The Effect of Replication Protein A Inhibition and Post-Translational Modification on ATR Kinase Signaling” (Research Square, 2024).

In one data set the target is T1, ATR-ATRIP (Homo sapiens, UniProt P27694).
T1 construct: His (C); purchased Eurofins DiscoverX 14–953
Description: Reconstituted ATR kinase assay (western blot of phosphorylation targets). It counts as biochemical. The conditions noted are these: for ATR-dependent phosphorylation of RPA32 Ser33 and Thr21 / ATR-dependent phosphorylation of p53 Ser15: reconstituted reaction with ssDNA, RPA, TopBP1, ATR-ATRIP, western blot; for IC50: fully reconstituted ATR kinase reaction. An excerpt: The minimal requirements to reconstitute ATR signaling in vitro are ssDNA, RPA, TopBP1, and ATR-ATRIP, and a phosphorylation target[51]–[54]. We used a similar experimental design with purified RPA, TopBP1, p53, and ATR-ATRIP, and reconstituted ATR activation and signaling using an M13mp18 ssDNA plasmid (Figure S1A-B). It has been reported that TopBP1 can stimulate ATR activity independent of RPA and in the presence or absence of a variety of DNA substrates at specific protein and salt concentrations, though the physiological relevance is unknown. We, therefore, first established physiological experimental conditions to reflect the dependence of ATR kinase activity on RPA, ssDNA, and TopBP1 by monitoring the phosphorylation of the ATR target p53 at Ser15. Low, background levels of ATR-dependent p53 phosphorylation are observed with various combinations of ssDNA, RPA, and TopBP1, however, as expected, maximal activation is observed only in the presence of all three (Fig. 1A–B). Importantly, p53 phosphorylation under our assay conditions was dependent upon RPA and ssDNA. […] (Fig. 1A–B). The RPA70 OB-F domain interacts with p53, and this interaction is thought to facilitate the recruitment of p53 for ATR phosphorylation. p53 also has weak ssDNA binding affinity that could influence it as a substrate for ATR, so we next compared the phosphorylation of wild-type (WT) p53 with that of the DNA-binding-impaired p53 R175H mutant. […] We then evaluated the impact of chemical RPA inhibition on ATR-dependent p53 phosphorylation in the reconstituted reactions. We first assessed the activity of RPA inhibitors that block the RPA-ssDNA interaction (RPA-DBi).
Kinase assays were performed in 15 mM HEPES pH 7.9, 30 mM KCl, 3 mM MgCl2, 5% glycerol, 1x phosphatase inhibitor cocktail 2 (Sigma-Aldrich, P5726), 0.5 mM DTT. RPAi were suspended in 100% DMSO, and the DMSO concentration in the final reaction mixture was kept constant at 5%. In a typical reaction (20 μL), 20 ng ATR-ATRIP, 20 nM TopBP1, 20 nM RPA, and 40 nM p53 were initially incubated on ice for 15 min. Reactions were initiated by the addition of 100 μM ATP and 1 ng M13mp18 ssDNA plasmid and incubated at 37°C for 1 hr. Reactions were quenched by the addition of 6x Laemmli buffer and brief boiling at 95°C. For reactions with RPAi, inhibitors were added for the initial 15 min incubation on ice. For reactions with pRPA, the indicated proteins (same concentrations as above) were incubated with 0.5 ng/μL DNA-PK, 100 μM ATP, and 1 ng M13mp18 ssDNA plasmid for 30 min at 37°C. Reactions were moved back to ice and 100 nM NU7441 was added to inhibit further DNA-PK kinase activity (for subsequent ATR kinase reactions) or quenched with 6x Laemmli buffer and brief boiling at 95°C (for control reactions). The remaining components required for ATR kinase reaction were then added to each reaction as indicated and returned to 37°C for 1 hr before quenching in the same manner as above. Proteins were separated by SDS-PAGE and transferred to polyvinylidene difluoride (PVDF) membranes (Bio-Rad, 1620177). Immunoblotting for RPA32 pSer33 (Thermo Fisher Scientific, A300–246A), RPA32 pSer4/8 (Thermo Fisher Scientific, A300–245A), RPA32 (Thermo Fisher Scientific, PA5–2256), and TopBP1 pSer1138 (Thermo Fisher Scientific, PA5–114666) were conducted in Tris-buffered saline (TBS)/0.5% Tween20 and immunoblotting for p53 pSer15 (Cell Signaling Technology, 9284S), p53 (Cell Signaling Technology, 2524S), and RPA32 pThr21 (Thermo Fisher Scientific, PA5–104809) were conducted in TBS/0.1% Tween20. All membranes were blocked with 2% BSA in TBS/Tween20 and incubated rocking at 4°C overnight. Membranes were washed with TBS/Tween20 and incubated with the corresponding IgG-horseradish peroxidase (HRP) secondary antibody (Bio-Rad, 1706515 & 1706516) for two hours at room temperature with orbital shaking. […]
A general note: A western blot detects proteins with antibodies after separation by electrophoresis.

In data set [1] the test system is ATR phosphorylation events. Also on record: method as in PMID 25070753. The following applies: cited from earlier work.
Data set [2] deals with T2, RPA (Homo sapiens, UniProt P27694).
T2 construct: His (C); made in house; host or cells: E. coli BL21(DE3)
T2 sequence (P27694 whole entry): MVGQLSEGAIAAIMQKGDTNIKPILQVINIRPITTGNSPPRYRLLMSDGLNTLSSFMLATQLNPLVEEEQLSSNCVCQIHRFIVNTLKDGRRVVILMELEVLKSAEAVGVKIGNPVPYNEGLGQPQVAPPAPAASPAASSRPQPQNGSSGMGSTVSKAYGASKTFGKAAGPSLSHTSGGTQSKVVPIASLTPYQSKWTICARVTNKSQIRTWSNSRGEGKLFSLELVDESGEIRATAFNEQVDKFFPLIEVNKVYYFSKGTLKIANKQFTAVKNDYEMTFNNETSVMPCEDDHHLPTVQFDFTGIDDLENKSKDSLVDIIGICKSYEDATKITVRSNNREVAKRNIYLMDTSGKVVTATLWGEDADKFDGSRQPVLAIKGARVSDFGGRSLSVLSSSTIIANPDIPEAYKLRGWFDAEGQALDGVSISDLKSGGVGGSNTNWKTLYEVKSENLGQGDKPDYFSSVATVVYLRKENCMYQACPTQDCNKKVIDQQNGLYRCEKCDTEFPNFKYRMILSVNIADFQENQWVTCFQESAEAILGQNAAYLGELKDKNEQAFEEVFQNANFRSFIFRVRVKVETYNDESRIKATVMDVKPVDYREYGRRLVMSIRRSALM
T2 sequence (P15927 whole entry partner): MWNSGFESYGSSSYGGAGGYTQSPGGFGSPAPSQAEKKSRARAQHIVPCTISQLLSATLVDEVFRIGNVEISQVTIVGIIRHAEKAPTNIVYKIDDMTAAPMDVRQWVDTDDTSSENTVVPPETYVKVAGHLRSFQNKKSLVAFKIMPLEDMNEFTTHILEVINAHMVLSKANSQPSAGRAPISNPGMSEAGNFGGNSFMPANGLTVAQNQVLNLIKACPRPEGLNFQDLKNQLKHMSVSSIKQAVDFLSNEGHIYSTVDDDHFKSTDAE
T2 sequence (P35244 whole entry partner): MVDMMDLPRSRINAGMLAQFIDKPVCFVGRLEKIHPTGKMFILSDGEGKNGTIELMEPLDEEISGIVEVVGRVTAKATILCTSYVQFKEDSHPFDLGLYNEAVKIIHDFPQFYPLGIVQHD
Also on record: method as in PMID 25070753. The following applies: cited from earlier work.

Data set [3] deals with T2, RPA. The conditions noted are these: read-out: in vitro RPA-DNA binding inhibition IC50; cited from earlier work.
For data set [4], the target named is RPA (His-tagged heterotrimer RPA70/RPA32/RPA14) (UniProt P27694;P15927;P35244 1-616;1-270;1-121). Briefly: EMSA; binding not disrupted by PAME 12.5-200 uM; PAME EMSA: 10 mM Tris pH 7.5, 10 mM NaCl, 10% glycerol, 25 C, 10 nM DNA, 7 nM (ssDNA) or 14 nM (duplex) RPA, 1% agarose; acetylation EMSA: 20 mM HEPES pH 7.8, 50 mM NaCl, 1 mM DTT, 5% DMSO, 0.001% NP-40, RT, 2.5 nM DNA, 6% native PAGE. The conditions noted are these: protein: recombinant; tags: His (on RPA70, plasmid p11d-tRPA70-His); copies: 1;1;1; label: 5' IRDye700; single strand. For orientation: A gel shift assay detects complexes by their altered migration in electrophoresis.
Sequence of RPA (His-tagged heterotrimer RPA70/RPA32/RPA14) (P27694 whole entry, chain 1 of 3): as the sequence (P27694 whole entry) above
Sequence of RPA (His-tagged heterotrimer RPA70/RPA32/RPA14) (P15927 whole entry, chain 2 of 3): as the sequence (P15927 whole entry partner) above
Sequence of RPA (His-tagged heterotrimer RPA70/RPA32/RPA14) (P35244 whole entry, chain 3 of 3): as the sequence (P35244 whole entry partner) above

What is called IC50 is the concentration needed to halve the response being measured.

Like-named read-outs stand apart in the source and are kept apart here.

T1 sequence (P27694 whole entry): as the sequence (P27694 whole entry) above
T1 sequence (P15927 whole entry partner): as the sequence (P15927 whole entry partner) above
T1 sequence (P35244 whole entry partner): as the sequence (P35244 whole entry partner) above

For the molecule `CS(=O)(=O)c1ccc(-c2cnc(N)c(C(=O)Nc3ccccc3)n2)cc1` [VE-821], at ATR-ATRIP, the “ATR-dependent phosphorylation of RPA32 Ser33 and Thr21” value is given as “abolished”; the “ATR-dependent phosphorylation of p53 Ser15” value is listed as “no p53 phosphorylation is observed”.
Consider `O=C1C=Cc2ccccc2/C1=C/Nc1ccccc1O` [HAMNO, (1Z)-1-[(2-hydroxyanilino)methylidene]naphthalen-2-one], for which the “IC50 for RPA32 phosphorylation (both residues) lower than that of p53 phosphorylation” value at ATR-ATRIP (RPA32 Ser33 and Thr21 vs p53 Ser15) was ~ 10 fold. Also, at ATR-ATRIP, the “ATR-dependent phosphorylation of RPA32 Ser33 and Thr21” value is reported as “inhibited”; the “ATR-dependent phosphorylation of p53 Ser15” value is listed as “inhibited”. In addition, the “levels of ATR phosphorylation events in treated cells” value in data set [1] is recorded as “lower levels of ATR phosphorylation events”. Besides, the “RPA ssDNA binding” value on RPA [2] is on record as “did not disrupt”.
Turning to `CCOc1ccc2cc(C3CC(c4ccc(I)cc4)=NN3C(=O)CCCC(=O)O)c(Cl)nc2c1` (stereo not drawn) [TDRL-551], the concentration for half-maximal inhibition (IC50) on ATR-ATRIP (read-out: IC50 for ATR-dependent RPA32 Ser33 phosphorylation) was 5 to 10 µM; on ATR-ATRIP (read-out: IC50 for ATR-dependent RPA32 Thr21 phosphorylation), 5 to 10 µM; on ATR-ATRIP (read-out: IC50 for ATR-dependent p53 Ser15 phosphorylation), 5 to 10 µM; at RPA [3], around 15 µM. Besides, the “RPA phosphorylation at RPA32 Ser33 and Thr21 at low inhibitor concentration” value on ATR-ATRIP (low concentrations of inhibitor (Fig. 2C, lane 3), not observed with p53 Ser15) is on record as “stimulated”. The “ATR-dependent phosphorylation of RPA32 Ser33 and Thr21” value on ATR-ATRIP is reported as “dose-dependent inhibition”. The “ATR-dependent phosphorylation of p53 Ser15” value at ATR-ATRIP was “titratable inhibition”.
With TTTTTTTTTTTTTTTTTTTTTTTTTTTTTT (ssDNA) [polyT 30mer], the binding result in data set [4] is reported as “binds”.
